In publication PMC9697339, “Pulmonary Safety Profile of Esc Peptides and Esc-Peptide-Loaded Poly(lactide-co-glycolide) Nanoparticles: A Promising Therapeutic Approach for Local Treatment of Lung Infectious Diseases” (Pharmaceutics, 2022):
Square brackets hold non-standard residues; d marks the D form. Peptide text beside a SMILES is read from it.

Tests used:
CD1 mice [1] = assay: Maximum tolerated dosage (MTD) and therapeutic index; format: in vivo, mouse
Method: (§1) Five-week-old female wild-type CD1 mice were anesthetized by isoflurane inhalation and instilled intratracheally with 1.5 mg/kg (corresponding to 300 μM) of Esc(1-21)-1c in the free or encapsulated form in 50 μL of PBS. Mice instilled with 50 μL of PBS or bare PVA-PLGA NPs were included for control. After 1 day and 14 days, mice were euthanized for tissue isolation and examined for histopathology. Tissues were fixed in situ with 4% paraformaldehyde for 10 min with open chest cavity. They were then embedded in paraffin, and 5 µm-thick tissue slices were prepared by staining in hematoxylin and eosin and analyzed for pathological severity. In parallel, another group of seven animals was anesthetized by isoflurane inhalation and instilled intratracheally with escalating concentrations up to 7 mg/kg Esc(1-21)-1c in 50 μL of PBS and monitored for survival to determine the MTDs.

[2] = test system: lungs of healthy CD1 mice; assay: Lung gene expression (RNA-seq) after intratracheal instillation; format: in vivo, mouse; details: i.t. 0.1 mg/kg (20 μM), 24 h, vs PBS-treated animals
Method: All animal experiments were carried out based on a protocol (n. 20087639) approved by the Institutional Animal Care and Use Committee of the University of Pittsburgh according to the National Institutes of Health (NIH) guide for the care and use of laboratory animals. Seven-week-old female wild-type CD1 mice were anesthetized by isoflurane inhalation and instilled intratracheally with 50 µL of peptide solution (0.1 mg/kg, i.e., 20 μM) or PVA-PLGA NP suspension (either bare NPs or NPs loaded with each peptide at 0.1 mg/kg), in PBS. Control mice were given 50 µL of PBS without peptide. After 24 h, mice were euthanized for lung tissue isolation to extract RNA for differential expression analysis (sequencing work was performed by Novogene US Marketing).

[3] = Stability in bronchoalveolar lavage fluid (BAL); format: in vitro ADME, mouse
Method: Bronchoalveolar lavage fluid (BAL) was collected from male and female C57BL/6 mice (4–5 months old) according to the procedure described in [31, 32]. Mice were euthanized by means of CO2 narcosis; a small incision at the level of the neck was made and a blunt needle connected to a syringe was inserted into the trachea. Then, lungs were washed with 1 mL of sterile PBS. BAL samples from each mouse were pooled, centrifuged at 1000 rpm (corresponding to […]) for 5 min, and stored at −80 °C. The supernatant was used for stability tests.
Peptides were dissolved in 400 µL of PBS at a concentration of 300 µM, and added to an equal volume of BAL at a final concentration of 150 µM. At different time points, 150 μL aliquots were withdrawn and added to 500 µL of acetonitrile, and then centrifuged. The supernatants were diluted with 160 μL of 0.1% trifluoroacetic acid (TFA)—water and analyzed by RP-HPLC and mass spectrometry. Liquid chromatography was performed on a Phenomenex Jupiter C18 analytical column (300 Å, 5 μm, 250 × 4.6 mm) in a 30 min gradient, using 0.1% TFA in water as solvent A and acetonitrile as solvent B. Mass spectrometry analysis of diluted samples was performed with a Bruker Daltonic-ultraflex-matrix-assisted laser desorption ionization tandem time-of-flight (MALDI-TOF/TOF) mass spectrometer.

[4] = cited from earlier work
Description: This last feature is not shown by any traditional antibiotic and is expected to accelerate the healing of a damaged lung epithelium, especially in CF lungs, where wound-healing processes are highly compromised. Interestin ...

CD1 mice [5] = assay: Mouse toxicity: histopathology after intratracheal instillation; format: in vivo
Method: as §1, with “After 1 day and 14 days, mice were euthanized for tissue isolation and examined for histopathology.” left out

In the case of `CC[C@H](C)[C@H](NC(=O)CN)C(=O)N[C@@H](Cc1ccccc1)C(=O)N[C@@H](CO)C(=O)N[C@@H](CCCCN)C(=O)N[C@@H](CC(C)C)C(=O)N[C@@H](C)C(=O)NCC(=O)N[C@@H](CCCCN)C(=O)N[C@@H](CCCCN)C(=O)N[C@H](C(=O)N[C@@H](CCCCN)C(=O)N[C@@H](CC(N)=O)C(=O)N[C@H](CC(C)C)C(=O)N[C@@H](CC(C)C)C(=O)N[C@H](C(=O)N[C@H](CO)C(=O)NCC(=O)N[C@@H](CC(C)C)C(=O)N[C@@H](CCCCN)C(=O)NCC(N)=O)[C@@H](C)CC)[C@@H](C)CC` [Esc(1-21)-1c] (H-GIFSKLAGKKIKN[dL]LI[dS]GLKG-NH2), the range of motion (CD1 mice [1]; 1 h and 24 h after i.t. instillation at 7 mg/kg) is reported as “maintained the same range of motion”, the “maximum tolerated dosage (highest dosage tested, well-tolerated)” value (CD1 mice [1]; i.t. instillation, increasing concentrations from 1.5 to 7 mg/kg in 50 μL PBS, survival monitored for 14 days) is reported as at least 7 mg/kg and the survival (CD1 mice [1]; i.t. up to 7 mg/kg, monitored for 14 days) is reported as “remained viable for the entire duration of the experiment”. For the same compound, the “Log2FC, gene Chil1 (up)” value [2] was 34.248, the “Log2FC, gene Dynlt1f (up)” value [2] was 19.702 and the “Log2FC, gene Eif4a-ps4 (up)” value [2] was 17.867. For the same compound, the “Log2FC, gene Rpl26 (up)” value [2] was 20.049, the “Log2FC, gene Snhg11 (down)” value [2] was −1.949 and the “time in BAL at which the peak of the full-length peptide (2185 Da) is still detected” value ([3]; mouse (C57BL/6) BAL supernatant mixed 1:1 with peptide in PBS, 300 μM (method: final 150 µM), time points 6 and 24 h, acetonitrile work-up, RP-HPLC C18 and MALDI-TOF/TOF) was at least 24 h. The “time of incubation with BAL after which the full-length peptide (2185 Da) is detectable” value ([3]; mouse BAL, high peptide concentration (as for 7 mg/kg), mass spectra (Figure S5)) was at least 48 h, the “resistance to enzymatic degradation compared with Esc(1-21)” value [4] was “more resistant to enzymatic degradation” and the “lung histology: inflammatory response or lung tissue damage” value (CD1 mice [5]; CD1 mice, i.t. 1.5 mg/kg (~300 µM) peptide free or encapsulated, or corresponding amount of bare NPs, 1 day and 14 days, H&E) was “did not detect any inflammatory response”. For the same compound, the “histology of other organs (liver and kidneys)” value (CD1 mice [5]; CD1 mice, i.t. 1.5 mg/kg free or encapsulated, 1 day and 14 days, vs control) was “no visible tissue injury, necrosis, or alteration in cell density”, the “histology of liver, spleen and kidneys” value (CD1 mice [5]; mice, i.t. 7 mg/kg, 48 h, vs control) was “no alteration in the tissue structure” and the “lung histopathology: recruitment of inflammatory cells” value (CD1 mice [5]; mice, i.t. 7 mg/kg, within 48 h, vs PBS-treated mice) was “did not reveal significant recruitment of inflammatory cells”.
